Source: patent publication US12448388B2, “PRMT5 inhibitors and uses thereof” (Gilead Sciences, Inc., priority 2023, dated 2025)
Where two headings read alike, the source gives them in different places.

System: HCT116 MTAP-deleted cell lines
Test: Cell viability assay (CellTiter-Glo, 7 days), HCT116 MTAP-deleted
Type: cell-based
Details: Homo sapiens, HCT-116, HCT116 MTAP-deleted, class symbols, read-out: CC50
Outline: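 Read-out was CellTiter-Glo luminescence after a 7-day incubation (37 °C, 5% CO2) of HCT116 cells, MTAP-deleted or WT, on dose-response compound plates. CC50 values come from each line; where marked *, selectivity is overstated because poor solubility impaired the WT CC50 measurement.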

Compound | CC50 (cell viability) [nM] | CC50 (cell viability assay) [nM]
Nc1nc2cc(F)c(C(=O)N(Cc3ccc(C(F)(F)F)cc3F)c3cnn(C4CC4)c3)cc2n2cncc12 [Ff-276, 4-amino-N-(1-cyclopropyl-1H-pyrazol-4-yl)-7-fluoro-N-(2-fluoro-4-(trifluoromethyl)benzyl)imidazo[1,5-a]quinoxaline-8-carboxamide] | < 100 | –
Cc1ncn2c1c(N)nc1cc(Cl)c(C(=O)N(C)[C@@H]3COc4cc(C(F)(F)F)ccc43)cc12 [Ff-492, (S)-4-amino-7-chloro-N,3-dimethyl-N-(6-(trifluoromethyl)-2,3-dihydrobenzofuran-3-yl)imidazo[1,5-a]quinoxaline-8-carboxamide] | – | < 100
Nc1nc2cc(F)c(C(=O)N(Cc3ccc(OC(F)F)cc3F)C34CC(C3)C4)cc2n2cncc12 [Ff-265, 4-amino-N-(bicyclo[1.1.1]pentan-1-yl)-N-(4-(difluoromethoxy)-2-fluorobenzyl)-7-fluoroimidazo[1,5-a]quinoxaline-8-carboxamide] | < 100 | –
Nc1nc2cc(Cl)c(C(=O)N3CC[C@H]4C[C@@H]3c3ccc(C(F)(F)F)nc34)cc2n2cncc12 (racemic) [Ff-91, Rac-(4-amino-7-chloroimidazo[1,5-a]quinoxalin-8-yl)((5R,9S)-2-(trifluoromethyl)-5,7,8,9-tetrahydro-6H-5,9-methanopyrido[3,2-c]azepin-6-yl)methanone] | < 100 | –
Nc1nc2cc(F)c(C(=O)N3CCC[C@@H]4OCc5cc(C6CC6)ccc5[C@@H]43)cc2n2cncc12 (racemic) [Ff-301, Rac-(4-amino-7-fluoroimidazo[1,5-a]quinoxalin-8-yl)((4aS,10bS)-8-cyclopropyl-2,3,4,4a,6,10b-hexahydro-1H-isochromeno[4,3-b]pyridin-1-yl)methanone] | < 100 | –
[2H]C([2H])([2H])[C@@H]1CN(C(=O)c2cc3c(cc2F)nc(N)c2cncn23)[C@H]2c3ccc(C(F)(F)F)cc3C[C@H]2O1 (single isomer, unassigned) [Ff-638] | – | < 100
CN(C(=O)c1ccc2nc(N)c3cncn3c2c1)[C@@H]1COc2cc(C#CC3(CF)CC3)ccc21 [Ff-520, (S)-4-amino-N-(6-((1-(fluoromethyl)cyclopropyl)ethynyl)-2,3-dihydrobenzofuran-3-yl)-N-methylimidazo[1,5-a]quinoxaline-8-carboxamide] | – | 100 to 1000
Nc1nc2cc(F)c(C(=O)N3CCC[C@@H]4Oc5c(ccc(F)c5F)[C@@H]43)cc2n2cncc12 (racemic) [Ff-102, Rac-(4-amino-7-fluoroimidazo[1,5-a]quinoxalin-8-yl)((4aS,9bS)-6,7-difluoro-3,4,4a,9b-tetrahydrobenzofuro[3,2-b]pyridin-1(2H)-yl)methanone] | 100 to 1000 | –
CN(C(=O)c1cc2c(cc1F)nc(N)c1cncn12)[C@@H]1COc2cc(C#CC3(C#N)CC3)ccc21 [Ff-445, 4-amino-N-[(3S)-6-[2-(1-cyanocyclopropyl)ethynyl]-2,3-dihydrobenzofuran-3-yl]-7-fluoro-N-methyl-imidazo[1,5-a]quinoxaline-8-carboxamide] | – | < 100
Nc1nc2cc(F)c(C(=O)N3CCC(F)(F)C[C@@H]3c3ccc(S(F)(F)(F)(F)F)cc3)cc2n2cncc12 [Ff-405, (R)-(4-amino-7-fluoroimidazo[1,5-a]quinoxalin-8-yl)(4,4-difluoro-2-(4-(pentafluoro-λ^6-sulfaneyl)phenyl)piperidin-1-yl)methanone] | – | < 100
C[C@@H]1C[C@@H]2Oc3cc(C(F)(F)F)c(F)cc3[C@@H]2N(C(=O)c2cc3c(cc2F)nc(N)c2cncn23)C1 [Ff-248, (4-amino-7-fluoroimidazo[1,5-a]quinoxalin-8-yl)((3R,4aS,9bS)-8-fluoro-3-methyl-7-(trifluoromethyl)-3,4,4a,9b-tetrahydrobenzofuro[3,2-b]pyridin-1(2H)-yl)methanone] | < 100 | –
C[C@H]1CN(C(=O)c2cc3c(cc2F)nc(N)c2cncn23)[C@H]2c3ccc(-c4cnn(C(F)F)c4)cc3C[C@H]2O1 [Ff-96, (4-amino-7-fluoroimidazo[1,5-a]quinoxalin-8-yl)((2S,4aS,9aR)-7-(1-(difluoromethyl)-1H-pyrazol-4-yl)-2-methyl-2,3,9,9a-tetrahydroindeno[2,1-b][1,4]oxazin-4(4aH)-yl)methanone] | < 100 | –
CO[C@@H]1Cc2cc(Br)ccc2[C@@H]1N(C)C(=O)c1cc2c(cc1F)nc(N)c1cncn12 [Ff-579, 4-amino-N-((1S,2R)-5-bromo-2-methoxy-2,3-dihydro-1H-inden-1-yl)-7-fluoro-N-methylimidazo[1,5-a]quinoxaline-8-carboxamide] | – | < 100
CCc1cc2nc(N)c3cncn3c2cc1C(=O)N(C)[C@@H]1COc2cc(C(F)(F)F)ccc21 [Fg-52, (S)-4-amino-7-ethyl-N-methyl-N-(6-(trifluoromethyl)-2,3-dihydrobenzofuran-3-yl)imidazo[1,5-a]quinoxaline-8-carboxamide] | – | < 100
CN(C(=O)c1cc2c(cc1F)nc(N)c1cncn12)[C@@H]1COc2cc(C3CC(C#N)C3)ccc21 (stereo partly drawn) [Ff-465, (S)-4-amino-N-(6-(3-cyanocyclobutyl)-2,3-dihydrobenzofuran-3-yl)-7-fluoro-N-methylimidazo[1,5-a]quinoxaline-8-carboxamide] | – | < 100
C[C@H]1CC2Oc3cc(C(F)(F)F)ccc3C2N(C(=O)c2cc3c(cn2)nc(N)c2cncn23)C1 (stereo partly drawn) [Ff-386, (4-aminoimidazo[1,5-a]pyrido[3,4-e]pyrazin-8-yl)((3S)-3-methyl-7-(trifluoromethyl)-3,4,4a,9b-tetrahydrobenzofuro[3,2-b]pyridin-1(2H)-yl)methanone] | – | < 100

Compound | CC50 (cell viability) [nM] | CC50 (cell viability assay) [nM]
CN(Cc1ccc(-c2cnn(C(F)F)c2)cc1Cl)C(=O)c1cc2c(cc1F)nc(N)c1cncn12 [Ff-551, 4-amino-N-(2-chloro-4-(1-(difluoromethyl)-1H-pyrazol-4-yl)benzyl)-7-fluoro-N-methylimidazo[1,5-a]quinoxaline-8-carboxamide] | – | 100 to 1000
C[C@@H]1CN(C(=O)c2cc3c(cn2)nc(N)c2cncn23)[C@H]2c3ccc(C(F)(F)F)cc3C[C@H]2O1 [Ff-98, (4-aminoimidazo[1,5-a]pyrido[3,4-e]pyrazin-8-yl)((2R,4aS,9aR)-2-methyl-7-(trifluoromethyl)-2,3,9,9a-tetrahydroindeno[2,1-b][1,4]oxazin-4(4aH)-yl)methanone] | < 100 | –
Nc1nc2cnc(C(=O)N3CCOC[C@@H]3c3ccc(C(F)(F)F)cc3)cc2n2cncc12 [Ff-86, (S)-(4-aminoimidazo[1,5-a]pyrido[3,4-e]pyrazin-8-yl)(3-(4-(trifluoromethyl)phenyl)morpholino)methanone] | < 100 | –
[2H]C([2H])([2H])N(C(=O)c1cc2c(cc1F)nc(N)c1cncn12)[C@@H]1COc2cc(C(F)(F)F)ccc21 [Ff-47, 4-amino-7-fluoro-N-(methyl-d3)-N-(6-(trifluoromethyl)-2,3-dihydrobenzofuran-3-yl)imidazo[1,5-a]quinoxaline-8-carboxamide] | < 100 | –
C[C@@H]1CN(C(=O)c2ccc3nc(N)c4cncn4c3c2)[C@H]2c3ccc(OC(F)(F)F)cc3C[C@H]2O1 (single isomer, unassigned) [Ff-187] | < 100 | –
Nc1nc2ccc(C(=O)N(Cc3ccc(-n4ccnc4)cc3Cl)C34CC(C3)C4)cc2n2cncc12 [Ff-63, 4-amino-N-(bicyclo[1.1.1]pentan-1-yl)-N-(2-chloro-4-(1H-imidazol-1-yl)benzyl)imidazo[1,5-a]quinoxaline-8-carboxamide] | 100 to 1000 | –
C[C@@H]1C[C@@H]2Cc3nc(C(F)(F)F)ccc3[C@@H]2N(C(=O)c2cc3c(cc2F)nc(N)c2cncn23)C1 (single isomer, unassigned) [Ff-393] | – | < 100
Nc1nc2cc(F)c(C(=O)N3CCC[C@@H]4Oc5cc(OC(F)(F)F)ccc5[C@@H]43)cc2n2cncc12 (racemic) [Ff-331, Rac-(4-amino-7-fluoroimidazo[1,5-a]quinoxalin-8-yl)((4aS,9bS)-7-(trifluoromethoxy)-3,4,4a,9b-tetrahydrobenzofuro[3,2-b]pyridin-1(2H)-yl)methanone] | < 100 | –
Nc1nc2cc(F)c(C(=O)N3CCCC[C@@H]3c3ccc(C(F)(F)F)cc3F)cc2n2cncc12 (single isomer, unassigned) [Ff-151] | < 100 | –
CCN(C(=O)c1cc2c(cn1)nc(N)c1c(C)ncn12)[C@@H]1COc2cc(C(F)(F)F)ccc21 [Ff-610, (S)-4-amino-N-ethyl-3-methyl-N-(6-(trifluoromethyl)-2,3-dihydrobenzofuran-3-yl)imidazo[1,5-a]pyrido[3,4-e]pyrazine-8-carboxamide] | – | < 100
CN(C(=O)c1cc2c(cn1)nc(N)c1cncn12)[C@@H]1COc2cc(C(F)(F)F)ccc21 [Ff-342, (S)-4-amino-N-methyl-N-(6-(trifluoromethyl)-2,3-dihydrobenzofuran-3-yl)imidazo[1,5-a]pyrido[3,4-e]pyrazine-8-carboxamide] | < 100 | –
Nc1nc2cc(F)c(C(=O)N(Cc3ccc(C(F)(F)F)cc3F)c3cnn4ccccc34)cc2n2cncc12 [Ff-424, 4-amino-7-fluoro-N-[[2-fluoro-4-(trifluoromethyl)phenyl]methyl]-N-pyrazolo[1,5-a]pyridin-3-yl-imidazo[1,5-a]quinoxaline-8-carboxamide] | – | < 100
CN(C(=O)c1cc2c(cc1F)nc(N)c1cncn12)C1COCc2cc(C(F)(F)F)ccc21 (stereo not shown) [Ff-39, 4-amino-7-fluoro-N-methyl-N-(7-(trifluoromethyl)isochroman-4-yl)imidazo[1,5-a]quinoxaline-8-carboxamide] | < 100 | –
CN(C(=O)c1cc2c(cc1F)nc(N)c1cncn12)C1CCCc2cc(Cl)ccc21 (stereo not shown) [Ff-425, 4-amino-N-(6-chloro-1,2,3,4-tetrahydronaphthalen-1-yl)-7-fluoro-N-methylimidazo[1,5-a]quinoxaline-8-carboxamide] | – | 100 to 1000
CN(C(=O)c1cc2c(cc1F)nc(N)c1cncn12)[C@H]1c2ccc(Br)cc2C[C@H]1OC(F)F [Ff-582, 4-amino-N-((1S,2R)-5-bromo-2-(difluoromethoxy)-2,3-dihydro-1H-inden-1-yl)-7-fluoro-N-methylimidazo[1,5-a]quinoxaline-8-carboxamide] | – | 100 to 1000
